Source: US20250051313A1, “PHTHALAZINE DERIVATIVES AS PYRUVATE KINASE MODULATORS” (Sitryx Therapeutics Limited, priority 2021, published 2025)
Like-named read-outs stand apart in the source and are kept apart here.

Tests used:
recombinant human PKLR = recombinant human PKLR (Homo sapiens (Human), UniProt P30613); experiment: Human PKLR activation assay (Kinase-Glo Plus luminescence); type: biochemical
Experimental: (§1) Measuring in vitro activation of recombinant human PKLR Compound activation of recombinant human PKLR pyruvate kinase activity was determined by biochemical assay. N-terminal His-tagged enzyme was sourced from R&D Systems and its substrates phosphoenolpyruvate (PEP) and ADP from Sigma-Aldrich and 2Bscientific Ltd, respectively. The Kinase-Glo® Plus luminescence assay was from Promega. All other reagents were from Sigma-Aldrich. Test Compounds were prepared as 10 mM DMSO stocks and dilution series prepared in DMSO for direct dilution into Assay Buffer comprising 50 mM imidazole, 50 mM KCl, 7 mM MgCl2, 0.01% Tween20, 0.05% BSA (pH 7.2).
Human PKLR was diluted into Assay Buffer to a final concentration of 5 pM. […]
(§2) After 60 minutes' incubation on an orbital shaker (300 rpm, 26° C.), enzyme activity was quantified by the luminescent detection of generated ATP. Kinase-Glo® Plus reagent was added to each well and the plates incubated for a further 15 minutes on an orbital shaker in the dark (300 rpm, 26° C.) before luminescence measurement on a plate reader (PHERAstar® FSX, BMG Labtech).
(§3) Percentage activation was calculated by normalising […] signals to plate LOW (DMSO vehicle) and HIGH (5 μM TEPP-46) controls. EC50 and Emax values were determined from 4-parameter logistic fits of compound concentration-response curves.

[1] = biological target: pyruvate kinase (PK) activity in human CD4+ T cell lysates (Homo sapiens, UniProt P14618); experiment: CD4+ T cell pyruvate kinase assay; type: cell-based; settings: human CD4+ T cells incubated with compound 20 minutes, then lysed; ΔAbsorbance OD570
Experimental: Compound activation of pyruvate kinase in human CD4+ T cell lysates was determined by biochemical assay. Primary CD4+ T cells were used rather than cancer cell lines to improve the disease relevance of the assay. The PK assay was sourced from Abcam. All other reagents were sourced from ThermoFisher. Test compounds were prepared as 10 mM DMSO stocks and dilution series prepared in DMSO for addition to intact CD4+ T cells cultured in RPMI media containing 10% FBS.
Human CD4+ T cells were incubated with compound for 20 minutes and then washed twice in 1×PBS before resuspension in Abcam PK lysis buffer to prepare cell lysates. 10 μl PK assay Reaction Mix was added per well, including OXIRED™ PROBE. The plates were read using a BMG Labtech Pherastar plate reader at OD570 nm in kinetic mode for […] (25 cycles of 2 minutes) at 25° C., protecting from light.
Plates were blank-subtracted and ΔAbsorbance calculated by subtracting the first plate read within the linear range from the plate read at the timepoint of interest. PK activity is expressed as ΔAbsorbance and plotted against log [Compound].

recombinant human PKM2 = recombinant human PKM2 (Homo sapiens (Human), UniProt P14618); experiment: Human PKM2 activation assay (Kinase-Glo Plus luminescence); type: biochemical; settings: for Emax: read-out: hPKM2 Emax
Experimental: as §1, with “PKM2” for “PKLR”, “hPKM2” for “enzyme”
Human PKM2 was diluted into Assay Buffer comprising 50 mM imidazole, 50 mM KCl, 7 mM MgCl2, 0.01% Tween20, 0.05% BSA (pH 7.2) to a final concentration of 5 pM. Enzyme-Assay Buffer mix was dispensed into a 384-well shallow-well white-walled plate (PerkinElmer) and Test Compounds added by acoustic dispense (Echo®, Labcyte Inc.).
as §2, §3

recombinant human PKM2, sequence (P14618 whole entry): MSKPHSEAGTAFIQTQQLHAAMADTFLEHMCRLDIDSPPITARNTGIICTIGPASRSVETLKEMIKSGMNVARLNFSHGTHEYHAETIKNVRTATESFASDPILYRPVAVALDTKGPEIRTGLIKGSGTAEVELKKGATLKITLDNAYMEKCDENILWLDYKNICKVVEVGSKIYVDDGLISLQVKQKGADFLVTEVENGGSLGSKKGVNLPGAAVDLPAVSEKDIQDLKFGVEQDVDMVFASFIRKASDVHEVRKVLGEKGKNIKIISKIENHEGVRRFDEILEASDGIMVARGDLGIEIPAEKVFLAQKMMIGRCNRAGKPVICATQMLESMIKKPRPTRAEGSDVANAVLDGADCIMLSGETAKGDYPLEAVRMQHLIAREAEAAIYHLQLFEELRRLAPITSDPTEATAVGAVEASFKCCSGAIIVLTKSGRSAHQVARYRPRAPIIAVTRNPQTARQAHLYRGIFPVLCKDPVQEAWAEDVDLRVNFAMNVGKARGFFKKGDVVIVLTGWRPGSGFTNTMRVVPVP
recombinant human PKLR, sequence (P30613 whole entry): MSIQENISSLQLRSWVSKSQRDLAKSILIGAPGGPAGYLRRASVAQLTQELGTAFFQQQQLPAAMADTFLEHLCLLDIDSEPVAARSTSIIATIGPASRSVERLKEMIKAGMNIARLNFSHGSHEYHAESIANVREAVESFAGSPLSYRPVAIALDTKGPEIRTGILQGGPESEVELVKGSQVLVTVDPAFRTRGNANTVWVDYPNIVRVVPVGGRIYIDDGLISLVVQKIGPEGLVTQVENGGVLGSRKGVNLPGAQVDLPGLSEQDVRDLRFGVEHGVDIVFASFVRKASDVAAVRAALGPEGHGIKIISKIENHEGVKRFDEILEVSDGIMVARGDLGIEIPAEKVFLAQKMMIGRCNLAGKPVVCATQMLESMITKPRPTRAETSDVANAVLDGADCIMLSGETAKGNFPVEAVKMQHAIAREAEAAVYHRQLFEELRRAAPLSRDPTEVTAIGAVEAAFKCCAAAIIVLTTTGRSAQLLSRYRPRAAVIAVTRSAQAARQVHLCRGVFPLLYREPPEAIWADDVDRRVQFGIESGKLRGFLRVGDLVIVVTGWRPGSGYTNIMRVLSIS
pyruvate kinase (PK) activity in human CD4+ T cell lysates, sequence (P14618 2-531 limits assumed): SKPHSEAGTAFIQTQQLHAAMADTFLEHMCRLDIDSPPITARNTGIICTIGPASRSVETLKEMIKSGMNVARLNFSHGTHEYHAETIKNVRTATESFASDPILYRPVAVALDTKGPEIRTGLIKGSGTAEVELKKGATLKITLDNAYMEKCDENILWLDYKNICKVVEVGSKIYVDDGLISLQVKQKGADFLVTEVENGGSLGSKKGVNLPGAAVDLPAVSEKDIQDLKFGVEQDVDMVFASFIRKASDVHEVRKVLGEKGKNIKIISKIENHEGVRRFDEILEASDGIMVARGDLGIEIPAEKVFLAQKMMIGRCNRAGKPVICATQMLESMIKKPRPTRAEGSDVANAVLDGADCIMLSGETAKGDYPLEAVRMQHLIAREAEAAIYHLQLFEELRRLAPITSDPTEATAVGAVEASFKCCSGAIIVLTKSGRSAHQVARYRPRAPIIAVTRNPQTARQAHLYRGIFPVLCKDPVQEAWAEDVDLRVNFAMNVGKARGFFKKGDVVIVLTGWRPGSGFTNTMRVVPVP

- Emax (recombinant human PKLR; percentage activation normalised to DMSO (LOW) and 5 μM TEPP-46 (HIGH), read-out: hPKLR Emax): 134%
- EC50 (recombinant human PKLR; recombinant His-tagged hPKLR, activation, 4-parameter logistic fit): 10.3 nM
- EC50 [1]: 82.5 nM
- Emax (recombinant human PKM2; data from repeated experiments, normalised to DMSO and 5 μM TEPP-46): 107%
- EC50 (recombinant human PKM2; data from repeated experiments, read-out: hPKM2 EC50): 107 nM
- Emax (recombinant human PKM2; percentage activation normalised to DMSO (LOW) and 5 μM TEPP-46 (HIGH)): 114%
- EC50 (recombinant human PKM2; recombinant His-tagged hPKM2, activation, 4-parameter logistic fit): 64.5 nM
Compound: O=c1c2ccc(S(=O)(=O)c3cn[nH]c3)cc2cnn1Cc1ccn(C2CC2)n1 [Example 1, 6-((1H-pyrazol-4-yl)sulfonyl)-2-((1-cyclopropyl-1H-pyrazol-3-yl)methyl) phthalazin-1(2H)-one]
